Measured values: US11253589B2, “Modulation of the immune response” (priority 2007, dated 2022)

How the values were obtained:
[1] = test system: myelin specific T cells; assay: Recall response (proliferation, cytokine secretion) to MOG35-55 or anti-CD3 of cells from treated mice; format: in vivo, mouse
Experimental: (§1) Cells were cultured in serum-free X-VIVO 20™ media (BioWhittaker, Walkersville, Md., USA) for 72 hours. During the last 16 hours, cells were pulsed with 1 μCi of [^3H]thymidine (PerkinElmer, Waltham, Mass., USA) followed by harvesting on glass fiber filters and analysis of incorporated [^3H]thymidine in a beta-counter (1450 Microbeta, Trilux, PerkinElmer). Alternatively, culture supernatants were collected […] activation and the cytokine concentration was determined by ELISA using antibodies for IFN-γ, IL-17, IL-4, IL-10 from BD Biosciences and antibodies to TGF-β from R&D Systems. For suppression assays, MACS purified CD4^+CD25^− T cells from naïve C57BL/6 mice (1-5×10^4 cells/well) were stimulated with antibodies to CD3 and C57BL/6 irradiated spleen cells (0.3-1.5×10^4 cells/well) for 3 days in the presence of different ratios of CD4^+ GFP^+ retrovirus-transduced T cells.
To further characterize the suppression of EAE by AHR activation we studied the activity of myelin specific T cells induced by vaccination with MOG35-55/CFA in TCDD-treated mice.
In addition, cells were stimulated in culture medium containing 100 μg/ml MOG35-55 for 2 days or with PMA (50 ng/ml) (Sigma-Aldrich) and ionomycin ([…]) (Calbiochem, San Diego, Calif., USA) for 4 hours, Golgistop (BD Biosciences) was added to the culture during the last 4 hours. After staining of surface markers, cells were fixed and permeabilized using Cytofix/Cytoperm and Perm/Wash buffer from BD Biosciences according to the manufacturer's instructions. All antibodies to cytokines (IFN-gamma, IL-17, IL-10) including the corresponding isotype controls were obtained from BD Biosciences. Cells were incubated (1:100) at 25° C. for 20 min and washed twice in Perm/Wash before analysis. Data were acquired on a FACSCalibur (BD Biosciences) and analyzed with FlowJo software (Tree Star, Ashland, Oreg., USA).
We then studied the effect of ITE administration on the encephalitogenic response against myelin. EAE was induced on naïve C57BL/6 mice and ITE ([…]) was administered orally or intraperitoneally on daily basis.

[2] = molecular target: T1, AHR (Homo sapiens, UniProt P35869); conditions: cited from earlier work
T1 sequence (P35869 11-848): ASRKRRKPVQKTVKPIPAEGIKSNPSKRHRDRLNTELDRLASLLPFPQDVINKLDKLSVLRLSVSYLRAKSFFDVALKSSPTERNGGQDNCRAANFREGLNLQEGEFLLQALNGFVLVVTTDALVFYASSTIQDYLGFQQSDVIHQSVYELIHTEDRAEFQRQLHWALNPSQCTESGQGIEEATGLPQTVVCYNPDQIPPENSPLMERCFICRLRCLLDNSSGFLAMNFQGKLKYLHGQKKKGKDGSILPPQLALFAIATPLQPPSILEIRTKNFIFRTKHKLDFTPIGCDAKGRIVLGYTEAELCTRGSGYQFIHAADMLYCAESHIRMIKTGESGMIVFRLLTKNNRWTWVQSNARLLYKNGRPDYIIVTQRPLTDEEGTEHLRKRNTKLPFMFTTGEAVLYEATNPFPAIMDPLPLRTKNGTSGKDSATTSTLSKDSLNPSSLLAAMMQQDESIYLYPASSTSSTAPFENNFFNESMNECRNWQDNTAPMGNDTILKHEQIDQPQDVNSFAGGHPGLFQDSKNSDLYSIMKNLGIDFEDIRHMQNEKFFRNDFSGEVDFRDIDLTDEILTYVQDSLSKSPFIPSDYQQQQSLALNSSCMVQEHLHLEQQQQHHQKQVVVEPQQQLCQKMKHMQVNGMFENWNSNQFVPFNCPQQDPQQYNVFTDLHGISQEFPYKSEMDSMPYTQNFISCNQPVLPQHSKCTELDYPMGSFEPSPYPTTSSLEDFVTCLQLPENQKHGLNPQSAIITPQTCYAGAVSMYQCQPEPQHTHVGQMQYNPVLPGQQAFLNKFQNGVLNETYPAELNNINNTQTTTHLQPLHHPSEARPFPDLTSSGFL

[3] = test system: CD4+Foxp3+ Treg; assay: CD4+Foxp3+ Treg quantified by FACS in treated mice; format: in vivo, mouse; set-up: number of CD4+FoxP3+ Treg / number of CD4+Foxp3+ T cells / levels of LAP+ regulatory T cells / number of CD4+FoxP3:GFP+ Treg in blood and spleen: dose or concentration left out as unconfirmed
[4] = test system: CD4+Foxp3:GFP+ Treg; assay: Treg suppressive activity assay; format: cell-based, mouse
Experimental: as §1
To investigate the active suppression of MOG35-55-specific Teff by Treg, Foxp3^gpf knock in mice were immunized with MOG35-55/CFA, treated daily with intreaperitoneal ITE ([…]) and the recall response to MOG35-55 and a mitogenic antibody to CD3 antibody was studied on FACS-sorted CD4^+ T cells and CD4^+ FoxP3:GFP− Teff. […] This suppressed response to MOG35-55 was lost upon removal of the CD4^+FoxP3:GFP^+ Treg (FIG. 26). To further analyze the MOG35-55-specific suppressive activity of the CD4^+FoxP3:GFP^+ Treg, they were cocultured at different ratios and assayed for the suppression of MOG35-55 or anti-CD3-triggered proliferation of CD4^+FoxP3:GFP− Teff form 2D2 mice, which harbor a TCR specific for MOG35-55.

[5] = CD4+ T cells from ITE-treated mice vs control
[6] = ITE 200 mg/mice daily (FIG. 22: IP), splenocytes
[7] = ITE ip daily, MOG35-55/CFA, spleens
[8] = ITE orally daily, MOG35-55/CFA, spleens
[9] = cells purified from TCDD-treated Foxp3gfp mice
[10] = draining lymph node cells of TCDD-treated mice vs control
[11] = lymph node cells of TCDD-treated mice, 10 days after MOG35-55/CFA

COC(=O)c1csc(C(=O)c2c[nH]c3ccccc23)n1 [ITE, 2-(1′H-indole-3′-carbonyl)-thiazole-4-carboxylic acid methyl ester]
IFNg secretion upon activation with MOG35-55 [1, 5]: lower amounts | IL2 secretion upon activation with MOG35-55 [1, 5]: lower amounts | IL6 secretion upon activation with MOG35-55 [1, 5]: lower amounts | IL17 secretion upon activation with MOG35-55 [1, 5]: lower amounts | IL-10 secretion upon activation with MOG35-55 [1, 5]: higher amounts | TGFb1 secretion upon activation with MOG35-55 [1, 5]: higher amounts | recall response of purified CD4+ T cells ([1]; Foxp3gfp mice, ITE 200 mg/mice intraperitoneal daily): suppressed response to MOG35-55 but not to anti-CD3 | proliferative response upon activation with antibodies to CD3 [1, 6]: no differences were seen | recall proliferative response to the MOG35-55 peptide [1, 6]: suppressed recall proliferative response | secretion of IFNg by lymph node cells activated with MOG35-55 or αCD3 ([1]; ITE-treated mice): significant reduction in the secretion | secretion of IL-17 by lymph node cells activated with MOG35-55 or αCD3 ([1]; ITE-treated mice): significant reduction in the secretion | AHR affinity [2]: high affinity AHR ligands | number of CD4+FoxP3:GFP+ Treg in blood and spleen ([3]; Foxp3gfp knock in mice, ITE ip daily, ten days after MOG35-55/CFA): significant increase in the number | levels of LAP+ regulatory T cells [3, 7]: did lead to significant alterations | number of CD4+FoxP3+ Treg [3, 7]: significant increase in the number | levels of LAP+ regulatory T cells [3, 8]: did lead to significant alterations | number of CD4+FoxP3+ Treg [3, 8]: significant increase in the number | MOG35-55-specific suppressive activity of CD4+ FoxP3:GFP+ Treg ([4]; Treg from ITE-treated mice, 2D2 Teff as responders): increased MOG35-55-specific suppressive activity

Clc1cc2c(cc1Cl)Oc1cc(Cl)c(Cl)cc1O2 [TCDD, 2,3,7,8 tetrachlorodibenzo-p-dioxin]
proliferation of effector CD4+ Foxp3:GFP- T cells to MOG35-55 [1, 9]: normal proliferation | secretion of IFNγ by effector CD4+ Foxp3:GFP- T cells upon activation with MOG35-55 [1, 9]: significantly decreased secretion | secretion of IL-17 by effector CD4+ Foxp3:GFP- T cells upon activation with MOG35-55 [1, 9]: significantly decreased secretion | IFNg secretion upon activation with MOG35-55 [1, 10]: lower amounts | IL-17 secretion upon activation with MOG35-55 [1, 10]: lower amounts | TGFb1 secretion upon activation with MOG35-55 [1, 10]: higher amounts | proliferative response upon activation with antibodies to CD3 [1, 11]: no differences were seen | recall proliferative response to the MOG35-55 peptide [1, 11]: suppressed recall proliferative response | AHR affinity [2]: high affinity AHR ligand | number of CD4+FoxP3+ Treg ([3]; TCDD ip, draining lymph nodes, without immunization): small increase | frequency of CD4+Foxp3+ T cells ([3]; TCDD ip, spleen, 21 days after EAE induction): significant increase in the frequency | rebound in Treg numbers ([3]; natural Treg depleted with antibodies to CD25 prior to TCDD treatment, day 7): faster rebound in their Treg numbers | number of CD4+Foxp3+ T cells ([3]; single TCDD ip followed by MOG35-55/CFA immunization, draining lymph nodes 10 days later): significant increase | MOG35-55-specific suppressive activity of CD4+Foxp3:GFP+ T cells ([4]; Treg expanded in vivo by TCDD administration and MOG35-55 immunization): increased MOG35-55-specific suppressive activity | proliferation and suppressive activity of CD4+Foxp3:GFP+ Treg purified from naïve mice ([4]; stimulation with antibodies to CD3 and CD28 and TCDD): did not proliferate and did not show increased suppressive activity
